In patent US10927105B1 (Lundbeck La Jolla Research Center, Inc., priority 2017, dated 2021):

Experiments:
[1] = biological target: T1, FAAH (Mus musculus (Mouse), UniProt O08914); experiment: In vitro competitive activity-based protein profiling (mouse brain membrane fraction, FP-Rh probe), FAAH band
Method: (§1) Biological Evaluation In Vitro Competitive Activity-Based Protein Profiling.
(§2) Proteomes (mouse brain membrane fraction for mouse assays; human prefrontal cortex membrane fractions for human assays) (50 mL, 1.0 mg/mL total protein concentration) were preincubated with varying concentrations of inhibitors at 37° C. After 30 min, FP-Rh (1.0 mL, 50 mM in DMSO) was added and the mixture was incubated for another 30 min at 37° C. Reactions were quenched with SDS loading buffer (15 μL-4×) and run on SDS-PAGE.

[2] = biological target: FAAH (Homo sapiens (Human), UniProt O00519); experiment: In vitro competitive activity-based protein profiling (human prefrontal cortex membrane fractions, FP-Rh probe), FAAH band; conditions: human prefrontal cortex membrane fractions
Method: as §1, §2

[3] = biological target: MAGL (Homo sapiens (Human), UniProt Q99685); experiment: In vitro competitive activity-based protein profiling (human prefrontal cortex membrane fractions, FP-Rh probe), MAGL band; conditions: human prefrontal cortex membrane fractions
[4] = biological target: T2, MAGL (Mus musculus (Mouse), UniProt O35678); experiment: In vitro competitive activity-based protein profiling (mouse brain membrane fraction, FP-Rh probe), MAGL band
Method: as §1, §2

[5] = biological target: T1, FAAH; experiment: Mouse brain proteomes from inhibitor treated mice (oral gavage, sacrificed 4 h after administration), FAAH; format: in vivo; conditions: 5 mg/kg oral gavage
[6] = biological target: T2, MAGL; experiment: Mouse brain proteomes from inhibitor treated mice (oral gavage, sacrificed 4 h after administration, brain proteomes analyzed); format: in vivo; conditions: 5 mg/kg oral gavage
[7] = biological target: T1, FAAH; experiment: Mouse brain proteomes from inhibitor treated mice (oral gavage, sacrificed 4 h after administration, brain proteomes analyzed), FAAH; format: in vivo; conditions: 5 mg/kg oral gavage, read-out: FAAH % inh. 5 mg/kg (mouse)

T2 sequence (O35678 whole entry): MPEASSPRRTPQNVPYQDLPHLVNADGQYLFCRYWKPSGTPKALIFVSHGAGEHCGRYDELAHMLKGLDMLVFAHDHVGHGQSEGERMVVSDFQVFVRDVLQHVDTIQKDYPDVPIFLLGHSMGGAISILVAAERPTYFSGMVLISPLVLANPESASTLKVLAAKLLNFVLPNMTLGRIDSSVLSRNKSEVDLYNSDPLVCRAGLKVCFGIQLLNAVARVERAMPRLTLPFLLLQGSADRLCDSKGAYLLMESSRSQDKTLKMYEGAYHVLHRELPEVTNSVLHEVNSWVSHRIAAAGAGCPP
T1 sequence (O08914 whole entry): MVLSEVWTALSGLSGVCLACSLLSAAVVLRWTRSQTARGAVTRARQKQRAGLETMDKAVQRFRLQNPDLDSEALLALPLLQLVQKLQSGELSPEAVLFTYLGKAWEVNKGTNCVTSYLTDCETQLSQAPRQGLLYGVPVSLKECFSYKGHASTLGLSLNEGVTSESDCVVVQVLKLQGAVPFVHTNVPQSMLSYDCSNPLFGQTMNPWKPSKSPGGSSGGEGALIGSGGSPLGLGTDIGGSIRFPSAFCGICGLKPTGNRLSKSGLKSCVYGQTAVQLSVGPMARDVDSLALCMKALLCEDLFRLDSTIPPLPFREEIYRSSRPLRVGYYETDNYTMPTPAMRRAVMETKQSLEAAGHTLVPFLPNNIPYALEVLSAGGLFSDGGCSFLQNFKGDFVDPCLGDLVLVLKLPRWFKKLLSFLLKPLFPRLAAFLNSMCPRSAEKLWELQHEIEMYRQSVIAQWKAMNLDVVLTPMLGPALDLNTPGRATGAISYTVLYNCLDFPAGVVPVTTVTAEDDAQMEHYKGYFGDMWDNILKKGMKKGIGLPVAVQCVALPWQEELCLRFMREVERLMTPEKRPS
Sequence of MAGL (Homo sapiens (Human), UniProt Q99685) (Q99685 whole entry): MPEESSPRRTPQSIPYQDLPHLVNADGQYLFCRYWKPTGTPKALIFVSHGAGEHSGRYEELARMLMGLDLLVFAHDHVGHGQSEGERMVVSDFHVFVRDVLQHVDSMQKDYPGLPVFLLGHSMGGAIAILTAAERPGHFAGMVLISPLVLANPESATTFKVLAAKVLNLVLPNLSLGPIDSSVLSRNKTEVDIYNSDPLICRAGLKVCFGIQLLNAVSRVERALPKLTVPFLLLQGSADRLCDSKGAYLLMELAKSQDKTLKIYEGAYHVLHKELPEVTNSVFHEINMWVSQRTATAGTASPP
Sequence of FAAH (Homo sapiens (Human), UniProt O00519) (O00519 whole entry): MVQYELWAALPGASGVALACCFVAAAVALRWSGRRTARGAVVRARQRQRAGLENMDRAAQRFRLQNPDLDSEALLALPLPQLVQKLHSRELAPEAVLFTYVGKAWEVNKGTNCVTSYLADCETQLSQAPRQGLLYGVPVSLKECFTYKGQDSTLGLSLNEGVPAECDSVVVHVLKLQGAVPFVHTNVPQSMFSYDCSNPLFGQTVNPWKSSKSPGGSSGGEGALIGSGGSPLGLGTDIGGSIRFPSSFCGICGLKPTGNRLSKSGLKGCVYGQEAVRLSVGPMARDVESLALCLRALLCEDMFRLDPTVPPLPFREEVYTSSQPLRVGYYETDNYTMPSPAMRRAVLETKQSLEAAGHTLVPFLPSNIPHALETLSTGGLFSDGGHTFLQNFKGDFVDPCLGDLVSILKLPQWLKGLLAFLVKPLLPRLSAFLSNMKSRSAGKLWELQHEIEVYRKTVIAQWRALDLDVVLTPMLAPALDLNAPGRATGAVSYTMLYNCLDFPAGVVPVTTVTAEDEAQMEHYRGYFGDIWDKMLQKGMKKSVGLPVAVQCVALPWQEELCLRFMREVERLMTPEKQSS

SMILES | FAAH % inh. 1 μM (mouse) [1] | FAAH % inh. 1 μM (human) [2] | MAGL % inh. 1 μM (human) [3] | MAGL % inh. 1 μM (mouse) [4] | inhibition at 5 mg/kg [7] [%] | also measured
O=C(O)c1ccn(C(=O)N2CCC3(CCN(Cc4cc(F)cc(C(F)(F)F)c4)C3)CC2)n1 [Example 152, 1-(2-(3-fluoro-5-(trifluoromethyl)-benzyl)-2,8-diazaspiro[4.5]-decane-8-carbonyl)-1H-pyrazole-3-carboxylic acid] | B (% inhibition is greater than or equal to 50% and less than 75%) | D (% inhibition is greater than or equal to 0% and less than 25%) | A (% inhibition is greater than or equal to 75%) | A (% inhibition is greater than or equal to 75%) |  | 
O=C(O)c1ccn(C(=O)N2CCC3(CCN(Cc4cccc(OC(F)(F)F)c4)C3)CC2)n1 [Example 153, 1-(2-(3-(trifluoromethoxy)-benzyl)-2,8-diazaspiro[4.5]-decane-8-carbonyl)-1H-pyrazole-3-carboxylic acid] | C (% inhibition is greater than or equal to 25% and less than 50%) | D (% inhibition is greater than or equal to 0% and less than 25%) | A (% inhibition is greater than or equal to 75%) | A (% inhibition is greater than or equal to 75%) |  | 
O=C(O)c1ccn(C(=O)N2CCC3(CCCN3Cc3ccc(C(F)(F)F)cc3Cl)CC2)n1 [Example 76, 1-(1-(2-chloro-4-(trifluoromethyl)-benzyl)-1,8-diazaspiro[4.5]-decane-8-carbonyl)-1H-pyrazole-3-carboxylic acid] | D (% inhibition is greater than or equal to 0% and less than 25%) | D (% inhibition is greater than or equal to 0% and less than 25%) | A (% inhibition is greater than or equal to 75%) | A (% inhibition is greater than or equal to 75%) |  | FAAH % inh. 5 mg/kg (mouse) [5]: D (% inhibition is greater than or equal to 0% and less than 25%); MAGL % inh. 5 mg/kg (mouse) [6]: D (% inhibition is greater than or equal to 0% and less than 25%)
O=C(O)c1ccn(C(=O)N2CCC3(CCCN3Cc3ccc(C(F)(F)F)cc3N3CCCCC3)CC2)n1 [Example 404, 1-(1-(2-(piperidin-1-yl)-4-(trifluoromethyl)-benzyl)-1,8-diazaspiro[4.5]-decane-8-carbonyl)-1H-pyrazole-3-carboxylic acid] |  |  |  |  | 0 to 25 | 
O=C(O)c1ccn(C(=O)N2CCN(Cc3cc(F)cc(Oc4ccc(Cl)cc4)c3)CC2)n1 [Example 161, 1-(4-(3-(4-chlorophenoxy)-5-fluorobenzyl)-piperazine-1-carbonyl)-1H-pyrazole-3-carboxylic acid] |  |  |  |  |  | IC50 ([2]; read-out: FAAH IC50 (μM) (human)): < 0.1 µM; IC50 ([3]; read-out: MAGL IC50 (μM) (human)): < 0.1 µM
O=C(O)c1ccn(C(=O)N2CCC3(CCCN3C(=O)c3ccc(C(F)(F)F)cc3N3CCCC3)CC2)n1 [Example 403, 1-(1-(2-(pyrrolidin-1-yl)-4-(trifluoromethyl)-benzoyl)-1,8-diazaspiro[4.5]-decane-8-carbonyl)-1H-pyrazole-3-carboxylic acid] |  |  |  |  | 0 to 25 | 
